{"source": "patent EP4778522A1", "about": "“USE OF PYRROLOPYRIMIDINE COMPOUND AND COMPOSITION THEREOF” (Guangzhou Joyo Pharmatech Co., Ltd., priority 2023, dated 2025)", "test_system": "FITC-induced mouse atopic dermatitis model", "test": "FITC-induced mouse atopic dermatitis model: change in ear thickness", "assay_type": "in vivo, Balb/c mice", "details": "20 mg/dose topical twice a day; for Ear thickness Day 5 / Ear thickness Day 6 / Ear thickness Day 12 / Ear thickness Day 13 / ΔEar thickness Day 6-Day 5 / ΔEar thickness Day 13-Day 5: right ear; for Inhibitory rate% (Day 13): Δ ear thickness vs model group", "excerpt": "• 1) Animals: female Balb/c mice, specific pathogen-free (SPF), aged 6-7 weeks at grouping, with 10 mice per group. The animals were provided by Shanghai Jihui Laboratory Animal Care Co., Ltd. • 2) Reagents, positive drugs and test drugs\nFITC induction method: experimental animals were subjected to examination in an adaptation period and weight screening after examined to be qualified. The animals were randomly divided into 6 experimental groups according to the weight, including a normal group, a model group, a clobetasol propionate ointment group, a 0.5% Compound I group, a 1% Compound I group and a 2% Compound I group, with 10 mice in each group. On day 0 and day 1, after all the experimental animals were administered for 2 hours, the animals were anesthetized with zoletil (25 mg/kg) and xylazine (5 mg/kg), and then subjected to sensitization operation at the abdomen (a sensitized part). The abdominal part of the experimental animal at about 3×4 cm was depilated before sensitization, and then 0.5% FITC (dissolved in dibutyl phthalate/acetone solution) was applied to the alopecic areas of the abdomens of the experimental animals in model group for sensitization. An equal volume of dibutyl phthalate/acetone was given to the alopecic areas of the abdomens of the experimental animals in the normal-blank gel group.\nOn day 5 and day 12, all the experimental animals were anesthetized with 1-4% isoflurane (all subsequent measurements on ear thickness were performed under anesthesia with isoflurane), and the thickness of the right-side ear margins of the experimental animals was measured as a baseline. On day 5 and day 12, 0.5% FITC was applied to both the inner and outer sides of the right ears of the experimental animals in model group for challenge treatment. An equal volume of dibutyl phthalate/acetone solution was given to the experimental animals in the normal-blank gel group.\nOn day 6 and day 13, 24 hours after each FITC challenge, the thickness of the right-side ear margins of all the experimental animals was measured. Ear swelling response was determined by the change in the ear thickness before and after FITC challenge measured with a digital display thickness gauge, the measurement positions were basically kept constant, and the mean change in the ear thickness (ΔT±S.E.M.) was recorded for each group.", "note": "Where “and” joins values, the source holds several entries; their conditions need not be identical. Identical values can stand only once. Marks after values point to notes of the source that are not given here."}
{"smiles": "CN(c1ncnc2[nH]ccc12)[C@@H]1CCc2cc(C#N)nn2C1", "note": "[compound I]", "values": [{"measurement": "Ear thickness Day 5", "setting": "0.5% gel", "result": 0.17, "unit": "mm"}, {"measurement": "Ear thickness Day 6", "setting": "0.5% gel", "result": 0.19, "unit": "mm"}, {"measurement": "Ear thickness Day 12", "setting": "0.5% gel", "result": 0.18, "unit": "mm"}, {"measurement": "Ear thickness Day 13", "setting": "0.5% gel", "result": 0.19, "unit": "mm"}, {"measurement": "ΔEar thickness Day 6-Day 5", "setting": "0.5% gel", "result": 0.0250, "unit": "mm"}, {"measurement": "ΔEar thickness Day 13-Day 5", "setting": "0.5% gel", "result": "0.0170 ± 0.0033", "unit": "mm"}, {"measurement": "ΔEar thickness Day 13-Day 5", "setting": "0.5% gel, listed as compound 1", "result": 0.0170, "unit": "mm"}, {"measurement": "Inhibitory rate% (Day 13)", "setting": "0.5% gel", "result": 82.65, "unit": "%"}, {"measurement": "Inhibitory rate% (Day 13)", "setting": "0.5% gel, listed as compound 1", "result": 82.65, "unit": "%****"}, {"measurement": "Ear thickness Day 5", "setting": "1% gel", "result": 0.17, "unit": "mm"}, {"measurement": "Ear thickness Day 6", "setting": "1% gel", "result": 0.20, "unit": "mm"}, {"measurement": "Ear thickness Day 12", "setting": "1% gel", "result": 0.18, "unit": "mm"}, {"measurement": "Ear thickness Day 13", "setting": "1% gel", "result": 0.19, "unit": "mm"}, {"measurement": "ΔEar thickness Day 6-Day 5", "setting": "1% gel", "result": 0.0280, "unit": "mm"}, {"measurement": "ΔEar thickness Day 13-Day 5", "setting": "1% gel", "result": "0.0250 ± 0.0043 mm and 0.0250 mm"}, {"measurement": "Ear thickness Day 5", "setting": "2% gel", "result": 0.17, "unit": "mm"}, {"measurement": "Ear thickness Day 6", "setting": "2% gel", "result": 0.20, "unit": "mm"}, {"measurement": "Ear thickness Day 12", "setting": "2% gel", "result": 0.18, "unit": "mm"}, {"measurement": "Ear thickness Day 13", "setting": "2% gel", "result": 0.20, "unit": "mm"}, {"measurement": "ΔEar thickness Day 6-Day 5", "setting": "2% gel", "result": 0.0260, "unit": "mm"}, {"measurement": "ΔEar thickness Day 13-Day 5", "setting": "2% gel", "result": "0.0250 ± 0.0017 mm and 0.0250 mm"}]}
